≈ marks a conversion by molar mass, not a printed value.
Tests used:
[1] = system: P. berghei-infected female Swiss Webster mice; details: oral; for 50% curative dose (PD50): free bases, 4 daily doses, estimated from dose–efficacy study (Table 3); for mouse survival extended compared to vehicle-treated control animals: one or two daily doses of 4 mg/kg
physchem = details: pH 7.4
[2] = Mouse liver microsome stability; details: for T1/2 (min) no NADPH / half-life: mouse liver microsomes; for microsomal CLint / half-life: mouse, microsomes
[3] = system: W2 P. falciparum parasites; assay: Plasmodium falciparum growth inhibition assay; details: 12f vs 2f
[4] = system: similar models (P. berghei-infected mice); details: single dose 20 mg/kg; cited from earlier work
[5] = T1/2 (min), half-life when incubated with mouse liver microsomes

| SMILES | T1/2 (min) no NADPH ([2]; no NADPH) | microsomal CLint [2] [µL/min/mg] | half-life [2, 5] [h] | other results |
| --- | --- | --- | --- | --- |
| CC(C)(N)CNC(=O)C[C@H]1CC[C@]2(CC1)OO[C@]1(O2)C2CC3CC(C2)CC1C3 [2a, arterolane, reference compound] | stable | – | – | 50% curative dose (PD50) [1]: ~4 mg kg^–1 day^–1; solubility kinetic (physchem): 433 µM (≈ 170 µg/mL) |
| NC(=O)CNC(=O)C[C@H]1CC[C@]2(CC1)OO[C@]1(O2)C2CC3CC(C2)CC1C3 [2b, reference compound] | stable | – | – | – |
| CC(C)(CN)CNC(=O)C[C@H]1CC[C@]2(CC1)OO[C@]1(O2)C2CC3CC(C2)CC1C3 [2d, reference compound] | stable | – | – | – |
| NC1CCN(C(=O)C[C@H]2CC[C@]3(CC2)OO[C@]2(O3)C3CC4CC(C3)CC2C4)CC1 [2i, reference compound] | stable | – | – | – |
| CC(C)(N)CNC(=O)C[C@@H]1CCC[C@]2(C1)OOC1(O2)C2CC3CC(C2)CC1C3 (stereo partly drawn) [12a] | stable | 4.1 | 2.82 | 50% curative dose (PD50) [1]: ~6 mg kg^–1 day^–1; solubility kinetic (physchem): 429 µM (≈ 168 µg/mL) |
| NC(=O)CNC(=O)C[C@@H]1CCC[C@]2(C1)OOC1(O2)C2CC3CC(C2)CC1C3 (stereo partly drawn) [12b] | stable | 18.6 | 0.622 | – |
| NCCNC(=O)C[C@@H]1CCC[C@]2(C1)OOC1(O2)C2CC3CC(C2)CC1C3 (stereo partly drawn) [12c] | – | 8.2 | 1.41 | mouse survival extended compared to vehicle-treated control animals [1]: 3 to 6 days; half-life ([2]; T1/2 (min) no NADPH, no NADPH): 2.27 h |
| CC(C)(CN)CNC(=O)C[C@@H]1CCC[C@]2(C1)OOC1(O2)C2CC3CC(C2)CC1C3 (stereo partly drawn) [12d] | stable | 10.8 | 1.07 | – |
| O=C(C[C@@H]1CCC[C@]2(C1)OOC1(O2)C2CC3CC(C2)CC1C3)N1CCOCC1 (stereo partly drawn) [12f] | – | – | – | fold more potent than cis-4″ regioisomer 2f (EC50, W2) [3]: 3 fold |
| O=C(C[C@@H]1CCC[C@]2(C1)OOC1(O2)C2CC3CC(C2)CC1C3)N1CCNCC1 (stereo partly drawn) [12g] | stable | 27.2 | 0.425 | – |
| NC1CCN(C(=O)C[C@@H]2CCC[C@]3(C2)OOC2(O3)C3CC4CC(C3)CC2C4)CC1 (stereo partly drawn) [12i] | stable | 8.2 | 1.41 | mouse survival extended compared to vehicle-treated control animals [1]: 3 to 6 days |
| c1cc([C@H]2CC[C@]3(CC2)OO[C@]2(O3)C3CC4CC(C3)CC2C4)ccc1OCCN1CCOCC1 [compound 3, artefenomel] | – | – | – | single-dose efficacy [4]: single-dose cures |

Reference: article PMC5535261 (Journal of Medicinal Chemistry, 2017)
